Broadly, the IC50 is the concentration that inhibits the measured activity by half. A high value points to lower potency.

One data set deals with TP53-binding protein 1 (Homo sapiens, UniProt Q12888). Briefly: Displacement of Biotin-p53K381acK382me2 from N-terminal his6-tagged 53BP1 (1484 to 1603 residues) (unknown origin) expressed in Rosetta2 BL21 (DE3) pLysS competent cells by TR-FRET assay. It is filed as single protein.
The next data set relates to HEK-293T. Briefly: Cytotoxicity against HEK293T cells assessed as reduction in cell viability measured upto 200 uM by celltiterglo 2.0 assay. It is filed as toxicity, cell-based. To be noted: human.
The subject of another data set is TERT-RPE1. The experiment in a line: Cytotoxicity against human RPE-1 cells assessed as reduction in cell viability measured upto 200 uM by celltiterglo 2.0 assay. It is filed as toxicity, cell-based. To be noted: tert-rpe1, 200 µM. In general terms: ATP-based viability assays read luminescence as a measure of living cells.

Chain of TP53-binding protein 1 (Q12888 whole entry, the tested form may be a part): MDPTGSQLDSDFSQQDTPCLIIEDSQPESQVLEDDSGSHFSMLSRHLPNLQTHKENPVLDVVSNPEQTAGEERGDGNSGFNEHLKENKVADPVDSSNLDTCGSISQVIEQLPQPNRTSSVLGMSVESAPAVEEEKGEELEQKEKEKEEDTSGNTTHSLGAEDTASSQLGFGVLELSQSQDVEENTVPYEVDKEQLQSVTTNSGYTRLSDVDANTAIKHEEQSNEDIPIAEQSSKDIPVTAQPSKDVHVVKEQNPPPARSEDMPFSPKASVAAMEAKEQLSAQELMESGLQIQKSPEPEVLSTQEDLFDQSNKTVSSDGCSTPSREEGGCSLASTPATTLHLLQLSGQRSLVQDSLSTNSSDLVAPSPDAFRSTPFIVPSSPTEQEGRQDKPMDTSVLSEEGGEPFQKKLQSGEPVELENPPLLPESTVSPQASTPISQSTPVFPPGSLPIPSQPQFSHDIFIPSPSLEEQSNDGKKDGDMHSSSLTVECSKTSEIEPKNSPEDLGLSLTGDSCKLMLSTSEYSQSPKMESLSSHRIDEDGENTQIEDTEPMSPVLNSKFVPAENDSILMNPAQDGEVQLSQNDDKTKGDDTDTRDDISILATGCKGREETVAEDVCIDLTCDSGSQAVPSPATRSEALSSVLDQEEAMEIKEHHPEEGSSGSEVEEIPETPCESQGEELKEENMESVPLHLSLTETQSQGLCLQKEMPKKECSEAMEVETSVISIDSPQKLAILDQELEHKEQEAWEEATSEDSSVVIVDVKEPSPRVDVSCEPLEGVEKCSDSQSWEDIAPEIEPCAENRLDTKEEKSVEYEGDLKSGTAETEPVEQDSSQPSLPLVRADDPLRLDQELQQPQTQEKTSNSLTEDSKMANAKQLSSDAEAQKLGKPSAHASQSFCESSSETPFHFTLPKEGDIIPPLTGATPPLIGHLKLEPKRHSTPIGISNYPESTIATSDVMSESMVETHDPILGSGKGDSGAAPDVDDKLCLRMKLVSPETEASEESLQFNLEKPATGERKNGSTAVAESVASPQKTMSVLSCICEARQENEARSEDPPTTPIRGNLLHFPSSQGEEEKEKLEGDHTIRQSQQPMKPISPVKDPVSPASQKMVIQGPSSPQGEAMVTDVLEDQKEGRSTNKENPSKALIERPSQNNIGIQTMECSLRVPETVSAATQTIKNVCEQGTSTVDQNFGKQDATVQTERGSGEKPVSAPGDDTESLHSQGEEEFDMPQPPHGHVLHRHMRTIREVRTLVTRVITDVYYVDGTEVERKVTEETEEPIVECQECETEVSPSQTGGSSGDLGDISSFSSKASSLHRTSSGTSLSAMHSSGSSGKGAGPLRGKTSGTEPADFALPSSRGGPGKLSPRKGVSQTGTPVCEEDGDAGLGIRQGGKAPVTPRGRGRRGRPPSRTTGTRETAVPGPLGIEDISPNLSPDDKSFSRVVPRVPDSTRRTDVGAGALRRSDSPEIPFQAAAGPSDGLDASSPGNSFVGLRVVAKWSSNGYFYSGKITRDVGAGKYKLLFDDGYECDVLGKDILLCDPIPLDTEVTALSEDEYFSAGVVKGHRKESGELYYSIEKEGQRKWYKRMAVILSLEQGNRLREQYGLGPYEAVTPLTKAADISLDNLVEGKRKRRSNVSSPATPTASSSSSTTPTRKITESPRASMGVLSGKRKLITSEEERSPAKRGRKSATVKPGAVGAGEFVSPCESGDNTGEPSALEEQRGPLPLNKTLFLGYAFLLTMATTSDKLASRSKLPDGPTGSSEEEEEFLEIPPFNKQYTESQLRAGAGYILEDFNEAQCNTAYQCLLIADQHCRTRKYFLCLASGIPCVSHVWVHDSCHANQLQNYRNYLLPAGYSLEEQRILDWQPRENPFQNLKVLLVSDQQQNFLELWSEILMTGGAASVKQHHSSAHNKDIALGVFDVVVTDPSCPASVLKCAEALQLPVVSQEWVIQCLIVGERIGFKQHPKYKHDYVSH

With `CN1CCN(c2ccnc(C(=O)N3CC[C@H]3C(=O)Nc3cccc(-c4ccc(C(N)=O)cc4)c3)c2)CC1`, the IC50 on TP53-binding protein 1 worked out at 5.7 µM.

On TP53-binding protein 1, `CN1CCN(c2ccnc(C(=O)N3CCC[C@H](C(=O)Nc4cccc(N5CCOCC5)c4)C3)c2)CC1` had an IC50 of 32 µM.

On to `CCN1CCN(c2ccnc(C(=O)N3CCC[C@H](C(=O)Nc4cccc(-c5ccc(C(N)=O)cc5)c4)C3)c2)CC1`, for which, on TP53-binding protein 1, the IC50 came to 1.4 µM. Compared with the last compound, the IC50 is about 23-fold lower.

`COC(=O)c1cccc(-c2cccc(NC(=O)[C@H]3CCCN(C(=O)c4cc(N5CCN(C)CC5)ccn4)C3)c2)c1` showed an IC50 at TP53-binding protein 1 of 10 µM.

With `CN1CCN(c2ccnc(C(=O)N3CCC[C@H](C(=O)Nc4cccc(-c5ccc6c(c5)CNC6=O)c4)C3)c2)CC1`, the IC50 on TP53-binding protein 1 was 3.4 µM. Compared with the last compound, the IC50 is about 2.9-fold lower.

For the compound `CN1CCN(c2ccnc(C(=O)N3CCC[C@H](C(=O)Nc4cccc(-c5cccc(C(=O)O)c5)c4)C3)c2)CC1`, the half-maximal inhibitory concentration (IC50) on TP53-binding protein 1 turned out to be 83 µM.

In turn, `CN1CCN(c2ccnc(C(=O)N3CCC[C@H](C(=O)Nc4cccc(-c5cccc(C(N)=O)c5)c4)C3)c2)CC1` came in with an IC50 at TP53-binding protein 1 of 1.9 µM.

In turn, `CN1CCN(c2ccnc(C(=O)N3CCC[C@H](C(=O)Nc4cccc(-c5ccccc5)n4)C3)c2)CC1` showed an IC50 on TP53-binding protein 1 of 7.4 µM.

Compound `CN1CCN(c2ccnc(C(=O)N3CCC[C@@H]3C(=O)Nc3cccc(-c4ccc(C(N)=O)cc4)c3)c2)CC1` showed an IC50 on TP53-binding protein 1 of 5 µM.

Turning to `CN1CCN(c2ccnc(C(=O)N3CCC[C@H](C(=O)Nc4cccc(-c5ccc6c(c5)CNC6)c4)C3)c2)CC1.Cl.Cl.Cl`, the Activity result with HEK-293T and in the data set on TERT-RPE1 was “Non-Toxic” each time.

For `CNC(=O)c1cccc(-c2cccc(NC(=O)[C@H]3CCCN(C(=O)c4cc(N5CCN(C)CC5)ccn4)C3)c2)c1`, the IC50 at TP53-binding protein 1 worked out at 11 µM.

On to `CN1CCN(c2ccnc(C(=O)N3CCC[C@H](C(=O)Nc4cccc(-c5ccncc5)c4)C3)c2)CC1`, for which the concentration for half-maximal inhibition (IC50) at TP53-binding protein 1 was determined as 6.6 µM.

In the case of `COC(=O)c1ccc(-c2cccc(NC(=O)[C@H]3CCCN(C(=O)c4cc(N5CCN(C)CC5)ccn4)C3)c2)cc1`, the IC50 at TP53-binding protein 1 was 10 µM. This IC50 is about 1.5-fold higher than that of the compound before.

As for `CN1CCN(c2ccnc(C(=O)N3CCC[C@H](C(=O)Nc4cccc(-c5ccc(C(=O)O)cc5)c4)C3)c2)CC1`, at TP53-binding protein 1, the IC50 stood at 8.1 µM.

In turn, `CN1CCN(c2ccnc(C(=O)N3CCC[C@H](C(=O)Nc4cccc(-c5ccc6[nH]cnc6c5)c4)C3)c2)CC1` came in with an IC50 on TP53-binding protein 1 of 38 µM.

For `CC(C)N1CCN(c2ccnc(C(=O)N3CCC[C@H](C(=O)Nc4cccc(-c5ccc(C(N)=O)cc5)c4)C3)c2)CC1`, the IC50 at TP53-binding protein 1 came out at 4.1 µM.

At TP53-binding protein 1, `CN1CCN(c2ccnc(C(=O)N3CCC[C@H](C(=O)Nc4cccc(-c5ccc6c(c5)CCNC6)c4)C3)c2)CC1` returned an IC50 of 28 µM.

Consider `CN1CCN(c2ccnc(C(=O)N3CCC[C@H](C(=O)Nc4cccc(N5CCNCC5)c4)C3)c2)CC1`, for which the IC50 at TP53-binding protein 1 was found to be 44 µM.

In the case of `CN1CCN(c2ccnc(C(=O)N3CCC[C@H](C(=O)Nc4cccc(-c5ccc6[nH]ncc6c5)c4)C3)c2)CC1`, the IC50 on TP53-binding protein 1 turned out to be 15 µM.

`CN1CCN(c2ccnc(C(=O)N3CCC[C@H](C(=O)Nc4cncc(-c5ccccc5)c4)C3)c2)CC1`: the IC50 at TP53-binding protein 1 was 5.9 µM. Against the preceding compound, the IC50 is about 2.5-fold lower.

On TP53-binding protein 1, `CN1CCN(c2ccnc(C(=O)N3CCC[C@@H](C(=O)Nc4cccc(-c5ccc(C(N)=O)cc5)c4)C3)c2)CC1` showed an IC50 of 15 µM. Compared with the last compound, the IC50 is about 2.5-fold higher.

In the case of `CN1CCN(c2ccnc(C(=O)N3CCC[C@H](C(=O)Nc4ccccc4)C3)c2)CC1`, the IC50 on TP53-binding protein 1 was determined as 22 µM.

With `CN1CCN(c2ccnc(C(=O)N3CCC[C@H](C(=O)Nc4cccc(-c5ccc6c(c5)CCCN6)c4)C3)c2)CC1`, the IC50 on TP53-binding protein 1 came to 12 µM.

Regarding `CN1CCN(c2ccnc(C(=O)N3CCC[C@H](C(=O)Nc4cccc(-c5ccccc5)c4)C3)c2)CC1`, the IC50 at TP53-binding protein 1 was 3.8 µM.

Turning to `CN1CCN(c2ccnc(C(=O)N3CCC[C@H](C(=O)Nc4cccc(-c5ccc6c(c5)CCN6)c4)C3)c2)CC1`, at TP53-binding protein 1, the IC50 turned out to be 7.8 µM.

`CNC(=O)c1ccc(-c2cccc(NC(=O)[C@H]3CCCN(C(=O)c4cc(N5CCN(C)CC5)ccn4)C3)c2)cc1` yielded an IC50 on TP53-binding protein 1 of 5.6 µM. This IC50 and that of the compound before are within 1.5-fold of each other.

Consider `CN1CCN(c2ccnc(C(=O)N3CCC[C@H](C(=O)Nc4cc(-c5cccnc5)ncn4)C3)c2)CC1`, for which the IC50 at TP53-binding protein 1 is above 100 µM.

For the compound `CN1CCN(c2ccnc(C(=O)N3CCC[C@H](C(=O)Nc4cccc(-c5ccccn5)c4)C3)c2)CC1`, on TP53-binding protein 1, the IC50 was determined as 18 µM. This counts as double-digit micromolar.

Turning to `CCCN1CCN(c2ccnc(C(=O)N3CCC[C@H](C(=O)Nc4cccc(-c5ccc(C(N)=O)cc5)c4)C3)c2)CC1`, the IC50 on TP53-binding protein 1 stood at 14 µM.

On TP53-binding protein 1, `CNC(=O)[C@H]1CCCN(C(=O)c2cc(N3CCN(C)CC3)ccn2)C1` displayed an IC50 above 100 µM.

At TP53-binding protein 1, `CN1CCN(c2ccnc(C(=O)N3CC[C@H](C(=O)Nc4cccc(-c5ccc(C(N)=O)cc5)c4)C3)c2)CC1` returned an IC50 of 2.2 µM. This lies in the single-digit micromolar range.

On TP53-binding protein 1, `CN1CCN(c2cccc(C(=O)N3CCC[C@H](C(=O)Nc4cccc(-c5ccc(C(N)=O)cc5)c4)C3)c2)CC1` had an IC50 of 1.3 µM.
